The subject of assay [1] is A549. The assay can be described thus: cells. Particulars: Homo sapiens, A549, 72 h.
Description: Antiproliferative activity against human A549 cells after 72 hrs by MTT assay
The subject of assay [2] is L929. The assay can be described thus: Antiproliferative activity against mouse L929 cells after 72 hrs by MTT assay. Particulars: L929, 72 h. A general note: Formazan colour is commonly taken as a measure of viable cells.
The subject of assay [3] is MCF7. As to the kind of experiment: Antiproliferative activity against human MCF7 cells after 72 hrs by MTT assay. Particulars: MCF7, 72 h. The assay is classed as functional, cell-based.
In assay [4] the test system is HeLa. As to the kind of experiment: Antiproliferative activity against human HeLa cells after 72 hrs by MTT assay. The assay is classed as functional, cell-based.

For the compound `Cc1ccc(CCc2nc3c(n2CCN2CCOCC2)C(=O)c2ccccc2C3=O)o1`, the IC50 in assay [1] was found to be 72.8 µM; in assay [2], 96.2 µM; in assay [3] it was 166 µM; in assay [4] it was 88.2 µM.

As for `O=C1c2ccccc2C(=O)c2c1nc(-c1cccnc1)n2CCN1CCOCC1`, the IC50 in assay [1] was 37.8 µM; in assay [2], 44.6 µM; in assay [3], 167 µM; in assay [4] it was 109 µM.

For the compound `O=C1c2ccccc2C(=O)c2c1nc(-c1ccc(-c3nc4c(n3CCN3CCOCC3)C(=O)c3ccccc3C4=O)cc1)n2CCN1CCOCC1`, the IC50 in assay [1] worked out at 63.4 µM; in assay [2], 121 µM; in assay [3], 39.1 µM; in assay [4], 79.2 µM.

Regarding `O=C1C(Cl)=C(NCCN2CCOCC2)C(=O)c2nccnc21`, the IC50 in assay [1] was 158 µM; in assay [2] it was 149 µM; in assay [3] it was > 200 µM; in assay [4], > 200 µM.

For the compound `C[N+]1(CCn2c(-c3ccccc3)nc3c2C(=O)c2ccccc2C3=O)CCOCC1`, the half-maximal inhibitory concentration (IC50) in assay [1] is > 200 µM; in assay [2] it was > 200 µM; in assay [3] it was 184 µM; in assay [4], > 200 µM.

On to `O=C1c2ccccc2C(=O)c2c1nc(-c1ccc(F)c(Cl)c1)n2CCN1CCOCC1`, for which the IC50 was determined as 31.2 µM in assay [1], 44.3 µM in assay [2], 48.4 µM in assay [3] and 52.5 µM in assay [4].

As to `O=C1c2ccccc2C(=O)c2c1nc(-c1ccncc1)n2CCN1CCOCC1`, the IC50 stood at 120 µM in assay [1], 116 µM in assay [2], 140 µM in assay [3] and 153 µM in assay [4].

In the case of `CC(C)Cc1nc2c(n1CCN1CCOCC1)C(=O)c1ccccc1C2=O`, the IC50 is 25.9 µM in assay [1], 157 µM in assay [2], > 200 µM in assay [3] and 180 µM in assay [4].

As to `O=C1c2ccccc2C(=O)c2c1nc(-c1cccc3ccccc13)n2CCN1CCOCC1`, the IC50 in assay [1] came to 16.6 µM; in assay [2], 41 µM; in assay [3] it was 30.1 µM; in assay [4], 19.2 µM.

As to `O=C1c2ccccc2C(=O)c2c1nc(-c1ccccc1)n2CCN1CCOCC1`, the IC50 in assay [1] was found to be 24.5 µM; in assay [2] it was 40.6 µM; in assay [3], 70.1 µM; in assay [4], 61.4 µM.

Regarding `CC(C)(C)c1nc2c(n1CCN1CCOCC1)C(=O)c1ccccc1C2=O`, the concentration for half-maximal inhibition (IC50) was 21.8 µM in assay [1], 86 µM in assay [2], 150 µM in assay [3] and 88.2 µM in assay [4].

As to `O=C1c2ccccc2C(=O)c2c1nc(-c1ccsc1)n2CCN1CCOCC1`, the IC50 in assay [1] stood at 20.9 µM; in assay [2], 122 µM; in assay [3] it was 115 µM; in assay [4] it was 136 µM.

For the compound `O=C1c2ccccc2C(=O)c2c1nc(-c1ccccn1)n2CCN1CCOCC1`, the IC50 in assay [1] was 32.2 µM; in assay [2], 118 µM; in assay [3] it was 37.7 µM; in assay [4] it was 105 µM.

For `Cc1cc2ncn(CCN3CCOCC3)c2cc1C`, the IC50 in assay [1] was 112 µM; in assay [2], 187 µM; in assay [3], 181 µM; in assay [4], > 200 µM.

For the compound `Cc1nc2c(n1CCN1CCOCC1)C(=O)c1ccccc1C2=O`, the IC50 was 105 µM in assay [1], 118 µM in assay [2], > 200 µM in assay [3] and > 200 µM in assay [4].

Turning to `CC(C)c1ccc(CC(C)c2nc3c(n2CCN2CCOCC2)C(=O)c2ccccc2C3=O)cc1` (configuration not stated), the IC50 is > 200 µM in assay [1], > 200 µM in assay [2], 110 µM in assay [3] and 122 µM in assay [4].

Turning to `CC(C)c1ccc(-c2nc3c(n2CCN2CCOCC2)C(=O)c2ccccc2C3=O)cc1`, the IC50 is 70 µM in assay [1], 71.9 µM in assay [2], 106 µM in assay [3] and 99.8 µM in assay [4].

For `CCC(C)c1nc2c(n1CCN1CCOCC1)C(=O)c1ccccc1C2=O` (configuration not stated), the IC50 is 175 µM in assay [1], 100 µM in assay [2], 123 µM in assay [3] and > 200 µM in assay [4].

As for `O=C1c2ccccc2C(=O)c2c1nc(C(F)(F)F)n2CCN1CCOCC1`, the 50% inhibitory concentration (IC50) in assay [1] turned out to be 15.9 µM; in assay [2], 16.2 µM; in assay [3], 17.9 µM; in assay [4], 15.1 µM.

With `C[N+]1(CCn2c(C(F)(F)F)nc3c2C(=O)c2ccccc2C3=O)CCOCC1`, the IC50 in assay [1] was 93.5 µM; in assay [2] it was > 200 µM; in assay [3], 139 µM; in assay [4], 116 µM.

For `Cc1ccccc1-c1nc2c(n1CCN1CCOCC1)C(=O)c1ccccc1C2=O`, the IC50 in assay [1] came out at 23.6 µM; in assay [2], 80.2 µM; in assay [3], 116 µM; in assay [4], 121 µM.

Take `C[N+]1(CCn2c(-c3ccccn3)nc3c2C(=O)c2ccccc2C3=O)CCOCC1`: the IC50 in assay [1] was determined as 141 µM; in assay [2] it was 106 µM; in assay [3], 141 µM; in assay [4] it was 106 µM.

For the compound `O=C1c2ccccc2C(=O)c2c1nc(-c1cccs1)n2CCN1CCOCC1`, the IC50 in assay [1] worked out at 91.9 µM; in assay [2], 177 µM; in assay [3], 137 µM; in assay [4] it was 173 µM.

As to `CCc1nc2c(n1CCN1CCOCC1)C(=O)c1ccccc1C2=O`, the IC50 was 84.9 µM in assay [1], 106 µM in assay [2], 179 µM in assay [3] and 144 µM in assay [4].

For `O=C1c2ccccc2C(=O)c2c1nc(-c1ccco1)n2CCN1CCOCC1`, the IC50 in assay [1] turned out to be 147 µM; in assay [2] it was 175 µM; in assay [3], 169 µM; in assay [4] it was 191 µM.

Regarding `COc1ccc(-c2nc3c(n2CCN2CCOCC2)C(=O)c2ccccc2C3=O)cc1Cl`, the IC50 is 4.3 µM in assay [1], 67.3 µM in assay [2], 10.6 µM in assay [3] and 8.3 µM in assay [4].

Turning to `CC(C)c1nc2c(n1CCN1CCOCC1)C(=O)c1ccccc1C2=O`, the IC50 in assay [1] amounted to 32.5 µM; in assay [2] it was 79.8 µM; in assay [3] it was 123 µM; in assay [4], 125 µM.

For `O=C1c2ccccc2C(=O)c2c1nc(C1CCC1)n2CCN1CCOCC1`, the IC50 in assay [1] came to 73 µM; in assay [2], 84.9 µM; in assay [3] it was 105 µM; in assay [4] it was 99.3 µM.

`C[N+]1(CCn2c(-c3ccsc3)nc3c2C(=O)c2ccccc2C3=O)CCOCC1`: the IC50 in assay [1] was determined as 115 µM; in assay [2], 133 µM; in assay [3] it was 133 µM; in assay [4] it was 160 µM.

In the case of `O=C1c2ccccc2C(=O)c2c1nc(C1CC1)n2CCN1CCOCC1`, the IC50 came out at 36 µM in assay [1], 40 µM in assay [2], 64.7 µM in assay [3] and 61.2 µM in assay [4].

As to `CCC(CC)c1nc2c(n1CCN1CCOCC1)C(=O)c1ccccc1C2=O`, the IC50 was 57.3 µM in assay [1], 79.4 µM in assay [2], 108 µM in assay [3] and 95.9 µM in assay [4].

On to `COc1ccc(-c2nc3c(n2CCN2CCOCC2)C(=O)c2ccccc2C3=O)cc1`, for which the IC50 in assay [1] stood at 84.5 µM; in assay [2] it was 101 µM; in assay [3] it was 86.9 µM; in assay [4], 112 µM.

With `c1c2ncn(CCN3CCOCC3)c2cc2ncn(CCN3CCOCC3)c12`, the IC50 in assay [1], in assay [2], in assay [3] and in assay [4] was > 200 µM each time.

Regarding `COc1ccc(-c2nc3c(n2CC[N+]2(C)CCOCC2)C(=O)c2ccccc2C3=O)cc1Cl`, the IC50 in assay [1] is 174 µM; in assay [2], > 200 µM; in assay [3], > 200 µM; in assay [4], 97.5 µM.

For `O=C1c2ccccc2C(=O)c2c1nc(C1CCCCC1)n2CCN1CCOCC1`, the IC50 in assay [1] was 76.4 µM; in assay [2], 80.3 µM; in assay [3], > 200 µM; in assay [4], > 200 µM.

`O=C1c2ccccc2C(=O)c2c1nc(-c1cccc(C(F)(F)F)c1)n2CCN1CCOCC1`: the IC50 in assay [1] came out at 33.3 µM; in assay [2] it was 72.5 µM; in assay [3], 134 µM; in assay [4], 185 µM.

With `O=C1c2ccccc2C(=O)c2c1nc(-c1ccc(Cl)c(C(F)(F)F)c1)n2CCN1CCOCC1`, the IC50 in assay [1] was found to be 45.2 µM; in assay [2], 111 µM; in assay [3], 140 µM; in assay [4] it was 119 µM.

On to `CCCc1nc2c(n1CCN1CCOCC1)C(=O)c1ccccc1C2=O`, for which the IC50 in assay [1] amounted to 37.4 µM; in assay [2], 80.3 µM; in assay [3], 95.9 µM; in assay [4] it was 95.1 µM.

For `O=C1c2ccccc2C(=O)c2c1nc(-c1cnccn1)n2CCN1CCOCC1`, the IC50 in assay [1] was 78.3 µM; in assay [2], 49.6 µM; in assay [3], 53.5 µM; in assay [4] it was 79.1 µM.

On to `O=C1c2ccccc2C(=O)c2c1nc(-c1cccc(F)c1)n2CCN1CCOCC1`, for which the IC50 stood at 87 µM in assay [1], 131 µM in assay [2], 106 µM in assay [3] and 133 µM in assay [4].

In the case of `O=C1c2ccccc2C(=O)c2c1nc(/C=C/c1ccccc1)n2CCN1CCOCC1`, the IC50 was determined as 76.9 µM in assay [1], 120 µM in assay [2], 58.3 µM in assay [3] and 82.1 µM in assay [4].

For `CCCCc1nc2c(n1CCN1CCOCC1)C(=O)c1ccccc1C2=O`, the IC50 in assay [1] was 107 µM; in assay [2], > 200 µM; in assay [3], 113 µM; in assay [4], 166 µM.

On to `C[N+]1(CCn2c(-c3cccc(F)c3)nc3c2C(=O)c2ccccc2C3=O)CCOCC1`, for which the IC50 in assay [1] is 166 µM; in assay [2], > 200 µM; in assay [3] it was 166 µM; in assay [4], 166 µM.

For orientation: IC50 means the concentration that inhibits the measured activity by half. Low readings indicate greater potency, high ones weaker potency.

(Values after ChEMBL document CHEMBL4118258, “2-Substituted-1-(2-morpholinoethyl)-1H-naphtho[2,3-d]imidazole-4,9-diones: Design, synthesis and antiproliferative activity” (Bioorg Med Chem Lett, 2018).)
